Assay results reported in article PMC11187126, “Structure and dynamics of the pyroglutamylated RF-amide peptide QRFP receptor GPR103” (Nature Communications, 2024).
No end group written: not given here.

Biological target: T1, GPR103 C98^2.57A (Homo sapiens, UniProt Q96P65, C98A)
T1 construct: we used human full-length QRFPR-encoding plasmids; expressed in transfected cells; host or cells: HEK293 cells, pCAGGS vector
T1 sequence (Q96P65 1-431 C98A): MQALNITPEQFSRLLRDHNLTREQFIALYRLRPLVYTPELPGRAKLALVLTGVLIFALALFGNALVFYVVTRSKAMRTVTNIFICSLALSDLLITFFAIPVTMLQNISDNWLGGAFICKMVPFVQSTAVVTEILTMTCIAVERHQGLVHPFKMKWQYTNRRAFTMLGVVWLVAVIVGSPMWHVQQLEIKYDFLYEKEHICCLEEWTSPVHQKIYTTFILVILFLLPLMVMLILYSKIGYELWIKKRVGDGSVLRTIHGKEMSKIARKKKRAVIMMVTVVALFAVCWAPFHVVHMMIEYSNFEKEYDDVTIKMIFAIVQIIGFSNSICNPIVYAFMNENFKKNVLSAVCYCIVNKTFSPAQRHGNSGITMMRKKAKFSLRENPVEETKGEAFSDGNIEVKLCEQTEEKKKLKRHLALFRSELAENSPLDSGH
Experiment: TGFα shedding assay; Exp. level WT (1:50)
Format: cell-based
Experimental: For the TGFα shedding assay and the flow cytometry analysis, we used human full-length QRFPR-encoding plasmids. Specifically, GPR103 was N-terminally modified with an HA signal sequence followed by a FLAG epitope and then a flexible linker ([…]; the FLAG epitope is underlined) and inserted into the pCAGGS vector. Plasmid encoding GPR103 mutants were generated using Quickchange Site-Directed Mutagensis kit (Agilent).
The TGFα shedding assay was performed as described previously with minor modifications. Plasmid transfection was performed in a 6-well plate with a mixture of 500 ng (per well in a 6-well plate) AP-TGFα-encoding plasmid and 200 ng GPR103-encoding plasmid. After 1-day culture, the transfected cells were harvested by trypsinization, pelleted by centrifugation at 190 × g for 5 min, and washed once with 5 mM HEPES (pH 7.4)-containing Hank’s Balanced Salt Solution (HBSS). After centrifugation, the cells were resuspended in 8 mL of the HEPES-containing HBSS. The cell suspension was seeded in a 96-well culture plate (cell plate) at a volume of 90 μL (per well hereafter) and incubated in a 37 °C incubator with 5% CO2 for 30 min. […] After spinning the cell plates at 190 × g for 2 min, 80 μL of conditioned media was transferred to an empty 96-well plate (conditioned media (CM) plate). Then, 80 μL of AP reaction solution (10 mM p-nitrophenylphosphate (p-NPP), 120 mM Tris-HCl (pH 9.5), 40 mM NaCl, and 10 mM MgCl2) was dispensed into the cell plates and the CM plates. Absorbance at 405 nm of the plates was measured using a microplate reader (SpectraMax 340 PC384, Molecular Devices) before and after 1-h incubation at room temperature. Ligand-induced AP-TGFα release was calculated by subtracting spontaneous AP-TGFα release signal from ligand-induced AP-TGFα release signal. The AP-TGFα release signals were fitted to a four-parameter sigmoidal concentration–response curve, using the Prism 10 software (GraphPad Prism). For each replicate experiment, the pEC50 parameter (negative logarithmic values of EC50 values) of the individual GPR103 mutants were normalized to that of the wild-type GPR103 performed in parallel, and resulting ∆pEC50 values were used to denote ligand response activity of the mutants. […]
Exp. le vel: WT (1:5 0)Exp. le vel: WT (1:5 0)Exp. le vel: WT (1:5 0)Exp. le vel: WT (1:2 0)Exp. le vel: WT (1:2 0)Exp. le vel: WT (1:1 0) […]
L1 4N - t e r mA F2 5N - t e r mA I 2 6N - t e r mA Y 2 9N - t e r mA C 9 82 .5 7A T10 22 .6 1A Exp . l eve l: WT (1 :5)Exp . l evel : >WT (1 :1)Exp. le vel: WT (1:2 0)Exp. le vel: WT (1:2 0)Exp. le vel: WT (1:5 0)Exp . l eve l: WT (1 :1) […]
Exp. le vel: WT (1:1 0)Exp. le vel: WT (1:2 0) C 1 1 83 .2 5AExp. le vel: WT (1:5 0)Exp. le vel: WT (1:5 0)Exp. le vel: WT (1:2 0)Exp . l eve l: WT (1 :5) […]
Exp. le vel: WT (1:5 0)Exp. le vel: WT (1:1 0)Exp. le vel: WT (1:5 0) E203ECL2AExp . l evel : >WT (1 :1)Exp. le vel: WT (1:5 0)Exp. le vel: WT (1:5 0) […]
Exp . l eve l: WT (1 :1) F28Exp. le vel: WT (1:5 0) C 2 8 56 .4 7AExp. le vel: WT (1:2 0) WExp. le vel: WT (1:2 0) F28Exp. le vel: WT (1:5 0)Exp . l evel : >WT (1 :1) […]
Exp. le vel: WT (1:5 0)Exp. le vel: WT (1:5 0) C 3 2 77 .4 8AExp . l eve l: WT (1 :5)Exp . l evel : >WT (1 :1)Exp . l evel : >WT (1 :1) […]
Suppl eme nt ary Figure 1 | Mutational analysis of GPR103. […]
mutants. Data are presented as mean values ± SEM, normally n=3-5; dots), each performed in triplicate. b-d Cell-surface expression (b) and QRFP26-in-duced activation of GPR103 (c, d) were analyzed by the flow cytometry and the TGFα shedding assay, respectively. From the concentration–response curves (a), Emax (c) and ΔpEC50 (d) values relative to the wild type were calculated. Colors in the mutant bars indicate an expression level matching to that of titrated wild type. Statistical analyses were performed using the ordinary one-way ANOVA followed by Dunnett tests with the expression-matched […]

Emax (mean): 86%
EC50 (n = 3): 72.4 nM
Emax (n = 3): 88.3 ± 3.6%
Substance: TSGPLGNLAEELNGYSRKKGGFSFRF-NH2 [QRFP26]
